From patent US20240207374A1, “LIPID NANOPARTICLES CONTAINING POLYNUCLEOTIDES ENCODING GLUCOSE-6-PHOSPHATASE AND USES THEREOF” (ModernaTX, Inc., priority 2021, published 2024)

Experiment: Residual parent lipid levels in the liver of mice (hEPO mRNA LNP)
Format: in vivo
Details: CD-1 mice

SMILES	Parent Lipid Remaining at 24 h [nmol/g liver tissue]
CCCCCCCCC(CCCCCCCC)OC(=O)CCCCCCCN(CCO)CCCCCCCC(=O)OCCC(CCCC)CCCCCC (stereo not shown) [Compound 7]	0.3 ± 0.2
CCCCCCCCC(CCCCCCCC)COC(=O)CCCCCN(CCCCCCCC(=O)OC(CC)CCCCCCCC)CCCNc1c(NC)c(=O)c1=O (stereo not shown) [Compound 14]	56 ± 6
CCCCCCCCC(CCCCCC)COC(=O)CCCCCN(CCCCCCCC(=O)OC(CC)CCCCCCCC)CCCNc1c(NC)c(=O)c1=O (stereo not shown) [Compound 15]	51 ± 4
CCCCCCCCC(CCCCCCCC)OC(=O)CCCCCCCN(CCCCCCCC(=O)OCC(CCCCC)CCCCCCC)CCCNc1c(NC)c(=O)c1=O (stereo not shown) [Compound 16]	77 ± 3
CCCCCCCCC(CCCCCCCC)OC(=O)CCCCCCCN(CCCCCCCC(=O)OCCC(CCCCCC)C(C)C)CCCNc1c(NC)c(=O)c1=O (stereo not shown) [Compound 17]	35 ± 5
CCCCCCCCC(CCCCCCCC)OC(=O)CCCCCCCN(CCCCCCCC(=O)OCC(CCCCCCC)C(C)C)CCCNc1c(NC)c(=O)c1=O (stereo not shown) [Compound 19]	73 ± 6
CCCCCCCCC(CCCCCCCC)OC(=O)CCCCCCCN(CCCCCCCC(=O)OCCC(CCCC)CCCCCC)CCCNc1c(NC)c(=O)c1=O (stereo not shown) [Compound 20]	65 ± 5
CCCCCCCCC(CCCCCCCC)OC(=O)CCCCCCCN(CCO)CCCCCCCC(=O)OCCC(CCCC)CCCC [Compound 22, 3-Butylheptyl 8-((8-(heptadecan-9-yloxy)-8-oxooctyl)(2-hydroxyethyl)amino)octanoate]	<0.1
CCCCCCC(CCCCCC)CCOC(=O)CCCCCCCN(CCO)CCCCCCCC(=O)OCCC(CCCCCC)CCCCCC [Compound 23]	24 ± 3
CCCCCCCCC(CCCCCCCC)OC(=O)CCCCCCCN(CCO)CCCCCCCC(=O)OCCC(CCCCC)CCCCC [Compound 24]	3 ± 1
CCCCCC(CCCCC)CCOC(=O)CCCCCCCN(CCO)CCCCCCCC(=O)OCCC(CCCCC)CCCCC [Compound 25]	0.1 ± 0.04
CCCCCCCCC(CCCCCCCC)OC(=O)CCCCCCCN(CCCCCCCC(=O)OCCC(CCCCCC)CCCCCC)CCCNc1c(NC)c(=O)c1=O [Compound 26]	141 ± 15
CCCCCCCCC(CCCCCCCC)OC(=O)CCCCCCCN(CCCCCCCC(=O)OCCC(CCCC)CCCC)CCCNc1c(NC)c(=O)c1=O [Compound 27, 3-Butylheptyl 8-((8-(heptadecan-9-yloxy)-8-oxooctyl)(3-((2-(methylamino)-3,4-dioxocyclobut-1-en-1-yl)amino)propyl)amino)octanoate]	27 ± 4
CCCCCCC(CCCCCC)CCOC(=O)CCCCCCCN(CCCCCCCC(=O)OCCC(CCCCCC)CCCCCC)CCCNc1c(NC)c(=O)c1=O [Compound 28]	58 ± 7
CCCCCCCCC(CCCCCCCC)OC(=O)CCCCCCCN(CCCCCCCC(=O)OCCC(CCCCC)CCCCC)CCCNc1c(NC)c(=O)c1=O [Compound 29]	66 ± 16
CCCCCC(CCCCC)CCOC(=O)CCCCCCCN(CCCCCCCC(=O)OCCC(CCCCC)CCCCC)CCCNc1c(NC)c(=O)c1=O [Compound 30, Bis(3-pentyloctyl) 8,8′-((3-((2-(methylamino)-3,4-dioxocyclobut-1-en-1-yl)amino)propyl)azanediyl)dioctanoate]	25 ± 4
CCCCCCCCC(CCCCCCCC)OC(=O)CCCCCCCN(CCO)CCCCCCCC(=O)OCCCC(CCCCC)CCCCC [Compound 31]	2 ± 0.6
CCCCCCCCC(CCCCCCCC)OC(=O)CCCCCCCN(CCCCCCCC(=O)OCCCC(CCCCC)CCCCC)CCCNc1c(NC)c(=O)c1=O [Compound 32]	69 ± 17
CCCCCC(CCCCC)CCCOC(=O)CCCCCCCN(CCO)CCCCCCCC(=O)OCCCC(CCCCC)CCCCC [Compound 33]	0.5 ± 0.3
CCCCCC(CCCCC)CCCOC(=O)CCCCCCCN(CCCCCCCC(=O)OCCCC(CCCCC)CCCCC)CCCNc1c(NC)c(=O)c1=O [Compound 34]	12 ± 2
CCCCCCCCC(CCCCCCCC)OC(=O)CCCCCCCN(CCO)CCCCCCCC(=O)OCCC1CCC(CC)CC1 (stereo not shown) [Compound 35]	<0.1

Further lines, results first:

Parent Lipid Remaining at 24 h [nmol/g liver tissue]	SMILES
<0.1	CCCCCCCCC(CCCCCCCC)OC(=O)CCCCCCCN(CCO)CCCCCCCC(=O)OCCC1CCC(CC)C1 (stereo not shown) [Compound 37]
4 ± 1	CCCCCCCCC(CCCCCCCC)OC(=O)CCCCCCCN(CCCCCCCC(=O)OCCC1CCC(CCC)CC1)CCCNc1c(NC)c(=O)c1=O (stereo not shown) [Compound 39]
3 ± 0.3	CCCCCCCCC(CCCCCCCC)OC(=O)CCCCCCCN(CCCCCCCC(=O)OCCC1CCC(CC)C1)CCCNc1c(NC)c(=O)c1=O (stereo not shown) [Compound 40]
4 ± 0.6	CCCCCC(CCCCC)CCOC(=O)CCCCCCCN(CCCCCCCC(=O)OCCC(CCC)CCC)CCCNc1c(NC)c(=O)c1=O [Compound 51]
<1	CCCCC(CCCC)CCOC(=O)CCCCCCCN(CCCCCCCC(=O)OCCC(CCC)CCC)CCCNc1c(NC)c(=O)c1=O [Compound 52]
<1	CCCC(CCC)CCOC(=O)CCCCCCCN(CCCCCCCC(=O)OCCC(CCC)CCC)CCCNc1c(NC)c(=O)c1=O [Compound 53]
12 ± 1	CCCCCC(CCCCC)CCOC(=O)CCCCCCCN(CCCCCCCC(=O)OCCC(CCCC)CCCC)CCCNc1c(NC)c(=O)c1=O [Compound 54, 3-Butylheptyl 8-((3-((2-(methylamino)-3,4-dioxocyclobut-1-en-1-yl)amino)propyl)(8-oxo-8-((3-pentyloctyl)oxy)octyl)amino)octanoate]
12 ± 1	CCCCCC(CCCCC)CCOC(=O)CCCCCCCN(CCCCCCCC(=O)OC(CCCCC)CCCCC)CCCNc1c(NC)c(=O)c1=O [Compound 57]
15 ± 2	CCCCCC(CCCCC)CCOC(=O)CCCCCCCN(CCCCCCCC(=O)OC(CCCC)CCCC)CCCNc1c(NC)c(=O)c1=O [Compound 58]
8.5 ± 0.6	CCCCCCC(CCCCCC)OC(=O)CCCCCCCN(CCCCCCCC(=O)OCCC(CCCC)CCCC)CCCNc1c(NC)c(=O)c1=O [Compound 60]
5.1 ± 0.8	CCCCCC(CCCCC)OC(=O)CCCCCCCN(CCCCCCCC(=O)OCCC(CCCC)CCCC)CCCNc1c(NC)c(=O)c1=O [Compound 61]
1.8 ± 0.6	CCCCC(CCCC)CCOC(=O)CCCCCCCN(CCCCCCCC(=O)OC(CCCC)CCCC)CCCNc1c(NC)c(=O)c1=O [Compound 62]
8.9 ± 2.8	CCCCCCCC(CCCCCCC)OC(=O)CCCCCCCN(CCCCCCCC(=O)OCCC(CCC)CCC)CCCNc1c(NC)c(=O)c1=O [Compound 63]
4.9 ± 0.9	CCCCCCC(CCCCCC)OC(=O)CCCCCCCN(CCCCCCCC(=O)OCCC(CCC)CCC)CCCNc1c(NC)c(=O)c1=O [Compound 64]
0.9 ± 0.3	CCCCCC(CCCCC)OC(=O)CCCCCCCN(CCCCCCCC(=O)OCCC(CCC)CCC)CCCNc1c(NC)c(=O)c1=O [Compound 65]
0.1 ± 0.03	CCCCC(CCCC)OC(=O)CCCCCCCN(CCCCCCCC(=O)OCCC(CCC)CCC)CCCNc1c(NC)c(=O)c1=O [Compound 66]
